System: CD1 female mouse brain lipidome
Test: Brain-region lipid levels (HPLC/MS/MS lipidomics) 2 h after single i.p. 3 mg/kg CP 55,940 vs vehicle
Format: in vivo
Parameters: N-arachidonoyl phenylalanine level, Mean / N-stearoyl tryptophan level, Mean / N-stearoyl proline level, Mean / N-stearoyl leucine level, Mean / N-stearoyl phenylalanine level, Mean / N-stearoyl serine level, Mean / N-stearoyl methionine level, Mean: unit: moles per gram
Conditions: hippocampus
Experimental: The Bloomington Institutional Animal Care and Use Committee of Indiana University reviewed and approved the animal procedures. Female mice from the CD1 strain were utilized to match our study examining THC’s effects on the brain lipidome ([Leishman et al., 2018]). Mice were given a single i.p. injection of either 3 mg/kg CP or 1:1:18 cremophor:ethanol:saline vehicle (please refer to the section “3 mg/kg CP Is Relevant for Synthetic Cannabinoid Abuse and Has Stronger Effects on the Female Mouse Brain Lipidome During Adolescence” for a justification of dose and use of female mice). Three different age groups were given injections: PND 35 and PND 50 adolescents, and adult mice (PND 113). At least eight mice in each age group received CP and at least eight received vehicle. Matching the THC study time course ([Leishman et al., 2018]), mice were sacrificed via rapid decapitation 2 h after injection. Brains were immediately removed and flash-frozen in liquid nitrogen, and then stored at -80°C until dissections were performed. Brains were dissected on an ice-cold dissection plate into the following regions: STR, HIPP, CER, THAL, CTX, HYP, MID, and STEM. These abbreviations for these brain areas will be used exclusively when discussing the results generated by these specific dissections. Each dissected area was immediately placed in liquid nitrogen and then stored at -80°C until used for lipid extraction.
Tissue extracts were performed as previously described ([Bradshaw et al., 2006]; [Stuart et al., 2013]; [Raboune et al., 2014]; [Leishman et al., 2016a],[b], [2017], [2018]). First, samples were shock frozen in liquid nitrogen, weighed, and transferred to a centrifuge tube. The mass of the largest sample was multiplied by 50 to determine how many milliliters of HPLC-grade methanol (Fisher, Fair Lawn, NJ, United States) to add. Then, samples were spiked with 500 pmol deuterium-labeled NAGly (d8NAGly; Cayman Chemical, Ann Arbor, MI, United States). Samples were placed on ice in darkness for 2 h then individually homogenized and centrifuged at 19,000 × g for 20 min at 20°C. Supernatants were diluted with HPLC water (purified in house) to make a solution of 75% water, 25% supernatant. Lipids were partially purified on C18 solid phase extraction columns (Agilent, Palo Alto, CA, United States). A series of four elutions with 1.5 mL of 60%, 75%, 85%, and 100% methanol were collected ([Stuart et al., 2013]; [Leishman et al., 2016a],[b], [2018]).
As previously described ([Bradshaw et al., 2006]; [Tan et al., 2006]; [Smoum et al., 2010]; [Stuart et al., 2013]; [Tortoriello et al., 2013]; [Raboune et al., 2014]; [Leishman et al., 2016a],[b], [2017], [2018]), samples were analyzed using an Applied Biosystems API 3000 triple quadrupole mass spectrometer with electrospray ionization (Foster City, CA, United States). Using an Agilent XDB-C18 reversed phase analytical column and optimized mobile phase gradients, 20 μL from each elution were chromatographed. Two Shimadzu 10ADvp pumps (Columbia, MD, United States) provided the pressure for gradient elution. Mobile phase A: 20% methanol, 80% water (v/v) and 1 mM ammonium acetate (Sigma, St. Louis, MO, United States). Mobile phase B: 100% methanol, 1 mM ammonium acetate. Every method run began with 0% mobile phase B, reached 100% mobile phase B flowing at 0.2 mL/min, and gradually returned to 0% mobile phase B.
This screening library will be referred to as the lipidome when discussing data from this study. HPLC/MS/MS data were analyzed using Analyst software (Applied Biosystems) ([Bradshaw et al., 2006]; [Tan et al., 2006]; [Stuart et al., 2013]; [Tortoriello et al., 2013]; [Raboune et al., 2014]; [Leishman et al., 2016a],[b], [2017], [2018]). Chromatograms (Supplementary Figure 3) were generated by determining the retention time of analytes from the analytical column with a [M-1] or [M+1] parent peak and a fragmentation peak corresponding to the programmed values. […]

[1] = PND 35, 3 mg/kg CP 55,940 vs vehicle
[2] = PND 35 WT female mice, 3mg/kg CP 55,940

CCCCCCC(C)(C)c1ccc([C@@H]2C[C@H](O)CC[C@H]2CCCO)c(O)c1 [CP 55,940]
THC level, Mean (adult, 3 mg/kg CP 55,940): BDL | phosphoLEA: Direction (relative to Veh) (adult, 3 mg/kg CP 55,940): ↑ | phosphoLEA: Magnitude (x Veh level) (adult, 3 mg/kg CP 55,940): 1.45 x Veh level | 2-arachidonoyl glycerol: Direction [1]: ↓ | 2-arachidonoyl glycerol: Magnitude [1]: 0.79 | 2-linoleoyl glycerol: Direction [1]: ↓ | 2-linoleoyl glycerol: Magnitude [1]: 0.63 | 2-oleoyl glycerol: Direction [1]: ↓ | 2-oleoyl glycerol: Magnitude [1]: 0.82 | 6-ketoPGF1α: Direction [1]: ↑ | 6-ketoPGF1α: Magnitude [1]: 1.32 | Arachidonic acid: Direction [1]: ↓ | Arachidonic acid: Magnitude [1]: 0.84 | Linoleic acid: Direction [1]: ↓ | Linoleic acid: Magnitude [1]: 0.77 | N-arachidonoyl GABA: Direction [1]: ↓ | N-arachidonoyl GABA: Magnitude [1]: 0.66 | N-arachidonoyl alanine: Direction [1]: ↓ | N-arachidonoyl alanine: Magnitude [1]: 0.76 | N-arachidonoyl ethanolamine: Direction [1]: ↓ | N-arachidonoyl ethanolamine: Magnitude [1]: 0.82 | N-arachidonoyl glycine: Direction [1]: ↓ | N-arachidonoyl glycine: Magnitude [1]: 0.86 | N-arachidonoyl phenylalanine: Direction [1]: ↓ | N-arachidonoyl phenylalanine: Magnitude [1]: 0.76 | N-arachidonoyl serine: Direction [1]: ↓ | N-arachidonoyl serine: Magnitude [1]: 0.49 | N-arachidonoyl taurine: Direction [1]: ↓ | N-arachidonoyl taurine: Magnitude [1]: 0.81 | N-docosahexaenoyl GABA: Direction [1]: ↓ | N-docosahexaenoyl GABA: Magnitude [1]: 0.52 | N-docosahexaenoyl alanine: Direction [1]: ↓ | N-docosahexaenoyl alanine: Magnitude [1]: 0.76 | N-docosahexaenoyl ethanolamine: Direction [1]: ↓ | N-docosahexaenoyl ethanolamine: Magnitude [1]: 0.71 | N-docosahexaenoyl glycine: Direction [1]: ↓ | N-docosahexaenoyl glycine: Magnitude [1]: 0.83 | N-docosahexaenoyl leucine: Direction [1]: ↑ | N-docosahexaenoyl leucine: Magnitude [1]: 1.41 | N-docosahexaenoyl serine: Direction [1]: ↓ | N-docosahexaenoyl serine: Magnitude [1]: 0.74 | N-linoleoyl GABA: Direction [1]: ↓ | N-linoleoyl GABA: Magnitude [1]: 0.55 | N-linoleoyl alanine: Direction [1]: ↓ | N-linoleoyl alanine: Magnitude [1]: 0.82 | N-oleoyl GABA: Direction [1]: ↓ | N-oleoyl GABA: Magnitude [1]: 0.59 | N-oleoyl alanine: Direction [1]: ↓ | N-oleoyl alanine: Magnitude [1]: 0.75 | N-oleoyl ethanolamine: Direction [1]: ↓ | N-oleoyl ethanolamine: Magnitude [1]: 0.77 | N-oleoyl glycine: Direction [1]: ↓ | N-oleoyl glycine: Magnitude [1]: 0.87 | N-oleoyl methionine: Direction [1]: ↓ | N-oleoyl methionine: Magnitude [1]: 0.68 | N-oleoyl valine: Direction [1]: ↑ | N-oleoyl valine: Magnitude [1]: 1.27 | N-palmitoyl alanine: Direction [1]: ↓ | N-palmitoyl alanine: Magnitude [1]: 0.85 | N-palmitoyl ethanolamine: Direction [1]: ↓ | N-palmitoyl ethanolamine: Magnitude [1]: 0.79 | N-palmitoyl leucine: Direction [1]: ↑ | N-palmitoyl leucine: Magnitude [1]: 1.31 | N-palmitoyl phenylalanine: Direction [1]: ↑ | N-palmitoyl phenylalanine: Magnitude [1]: 1.26 | N-palmitoyl tyrosine: Direction [1]: ↑ | N-palmitoyl tyrosine: Magnitude [1]: 1.29 | N-palmitoyl valine: Direction [1]: ↑ | N-palmitoyl valine: Magnitude [1]: 1.24 | N-stearoyl GABA: Direction [1]: ↓ | N-stearoyl GABA: Magnitude [1]: 0.77 | N-stearoyl alanine: Direction [1]: ↓ | N-stearoyl alanine: Magnitude [1]: 0.79 | N-stearoyl glycine: Direction [1]: ↓ | N-stearoyl glycine: Magnitude [1]: 0.87 | N-stearoyl valine: Direction [1]: ↑ | N-stearoyl valine: Magnitude [1]: 1.39 | Oleic acid: Direction [1]: ↓ | Oleic acid: Magnitude [1]: 0.82 | PGF2α: Direction [1]: ↑ | PGF2α: Magnitude [1]: 1.28 | 2-arachidonoyl glycerol level, Mean [2]: 2.47E-10 | 2-linoleoyl glycerol level, Mean [2]: 1.2E-10 | 2-oleoyl glycerol level, Mean [2]: 9.43E-10 | 2-palmitoyl glycerol level, Mean [2]: 7.71E-10 | 6-ketoPGF1α level, Mean [2]: 1.92E-11 | 11-OH-THC level, Mean [2]: BDL | 11-nor-9-carboxyTHC level, Mean [2]: BDL | Arachidonic acid level, Mean [2]: 4.25E-09 | Cannabidiol level, Mean [2]: BDL | Linoleic acid level, Mean [2]: 9.72E-10 | N- stearoyl valine level, Mean [2]: 8.48E-13 | N-arachidonoyl GABA level, Mean [2]: 2.17E-11 | N-arachidonoyl alanine level, Mean [2]: 1.79E-11 | N-arachidonoyl dopamine level, Mean [2]: BDL | N-arachidonoyl ethanolamine level, Mean [2]: 4.75E-11 | N-arachidonoyl glycine level, Mean [2]: 6.69E-11 | N-arachidonoyl methionine level, Mean [2]: PISSR | N-arachidonoyl phenylalanine level, Mean [2]: 1.21E-12 | N-arachidonoyl proline level, Mean [2]: BDL | N-arachidonoyl serine level, Mean [2]: 8.58E-12 | N-arachidonoyl taurine level, Mean [2]: 2.18E-10

From publication PMC6277767, “Broad and Region-Specific Impacts of the Synthetic Cannabinoid CP 55,940 in Adolescent and Adult Female Mouse Brains” (Frontiers in Molecular Neuroscience, 2018)
